Measured values reported in US20150265644A1, “THERAPEUTIC METHODS AND COMPOSITIONS FOR TREATING DIABETES UTILIZING DITERPENOID COMPOUNDS” (Orient Europharma Co., Ltd., priority 2014, published 2015).

Legend:
[1] = Plasma insulin level before and after treatment in mice; assay type: in vivo
Experimental: The 4-week-old male ICR mice were purchased from the Animal Center of the College of Medicine, National Taiwan University (Taipei, Taiwan) with delicate humane care. This animal study was conducted by following the University ethical guidelines and the ‘Guide for the Care and Use of Laboratory Animals’ published by the US National Institutes of Health (NIH publication no. 85-23, revised 1996). The animal experiments were approved by the Institutional Animal Care and Use Committee (IACUC) of the National Taiwan University (IACUC No. 20110073). Animals were housed in a room at the constant temperature, 22±1° C., with 12 hours light and dark cycles.
After three days of acclimatization, the mice had free access to a standard rodent chow (normal mice), a standard rodent chow after single 250 mgkg^−1 streptozotocin (STZ) intraperitoneal injection (TIDM mice), and a fat-rich chow diet and fructose-sweetened water (T2DM mice) for 4 weeks. The induction of Type 1 DM was assessed and confirmed when the mice had plasma glucose levels ≧350 mgdL^−1, accompanied with polyuria, hyperphagia and decreased body weight. The induction Type 2 DM in the mice was assessed by measuring fasting plasma glucose levels and confirmed when plasma glucose level was ≧150 mgdL^−1 after the 4-week induction. The animals were assigned randomly into three groups, with seven animals in each group. In group I, the mice were treated with vehicle, 2% DMSO in normal saline, as the negative control. In group II, the mice were intraperitoneally treated with borapetoside A (0.1-10 mgkg^−1). In […], the mice received intraperitoneally metformin (300 mgkg^−1; Sigma Chemical Co., St. Louis, Mo., U.S.A.) or insulin (0.5 IUkg^−1; Insulin Actrapid® HM; Novo Nordisk, Denmark). In the acute study, mice under anesthesia received a single intraperitoneal administration of borapetoside A, negative control, or positive control. In the subacute study, mice received intraperitoneal administrations of borapetoside A, vehicle, or insulin twice a day for seven days.
Blood samples were collected from the orbital vascular plexus of the mice under anesthesia. Blood samples were then centrifuged at 13000 rpm for 5 min, and the plasma samples were collected and kept on ice prior to the assay. The plasma glucose concentration was measured by Glucose Kit Reagent (Biosystems S.A., Barcelona, Spain) following the manufacturer's instructions, and the insulin levels were estimated using mouse insulin ELISA kit (Mercodia AB, Uppsala, Sweden).

soleus muscle = assay: Glycogen content in soleus muscle in vivo; set-up: species or system mice; settings: 10 mgkg^−1 i.p., 60 minutes
Experimental: (§1) The mice were injected with borapetoside A (10 mgkg^−1, interperitoneal) for 60 minutes or insulin (0.5 IUkg^−1, interperitoneal) for 30 minutes. After the treatment, the anesthetic mice were sacrificed by cervical dislocation to collect the soleus muscle and liver. About 40 mg of each sample was dissolved in 1 mol/L KOH at 75° C. for 30 min. The dissolved homogenate was neutralized by glacial acetic acid and then incubated overnight in acetate buffer (0.3 mol/L sodium acetate, pH 4.8) containing amyloglucosidase (Sigma, St. Louis, Mo.). The mixture was then neutralized with 1 mol/L NaOH to stop the reaction. The glycogen contents in the tissue samples were determined as μg of glucose per mg of tissue (wet weight).

liver = assay: Glycogen content in liver in vivo; set-up: species or system mice; settings: 10 mgkg^−1 i.p., 60 minutes
Experimental: as §1

phosphor-AS160 (Thr^642) = assay: Western blot of liver, phospho-AS160; assay type: in vivo; settings: mice with type 1 DM, 10 mgkg^−1 i.p. twice a day for 7 days
Experimental: (§2) After three days of acclimatization, the mice had free access to a standard rodent chow (normal mice), a standard rodent chow after single 250 mgkg^−1 streptozotocin (STZ) intraperitoneal injection (TIDM mice), and a fat-rich chow diet and fructose-sweetened water (T2DM mice) for 4 weeks. The induction of Type 1 DM was assessed and confirmed when the mice had plasma glucose levels ≧350 mgdL^−1, accompanied with polyuria, hyperphagia and decreased body weight. The induction Type 2 DM in the mice was assessed by measuring fasting plasma glucose levels and confirmed when plasma glucose level was ≧150 mgdL^−1 after the 4-week induction. […]
(§3) Western blot analysis was carried out by known methods with a slight modification. […] After centrifuging the homogenates at 10,000 g for 30 minutes, the protein concentrations were determined by using a BCA Protein Assay Kit (Pierce Biotechnology, Rockford, Ill.). […] The membranes were analysed by using the antibodies against phospho-insulin receptor β (IRβ) (Tyr^1345), phospho-Akt (Ser^473), phosphor-AS160 (Thr^642), AS160 (Cell Signaling Technology, Beverly, Mass.), IRβ, Akt, β-Actin (Santa Cruz Biotechnology, Santa Cruz, Calif.), GLUT2 (Abcam, Cambridge, UK), and PEPCK (a gift from Professor D K Granner), respectively. […] The intensity of each band was quantified with ImageQuant.

GLUT2 = assay: Western blot of liver, GLUT2 expression; assay type: in vivo; settings: mice with type 1 DM, 10 mgkg^−1 i.p. twice a day for 7 days
Experimental: as §2, §3

PEPCK = assay: Western blot of liver, PEPCK expression; assay type: in vivo; settings: mice with type 1 DM, 10 mgkg^−1 i.p. twice a day for 7 days
Experimental: as §2, §3

Q: Which Plasma insulin ([1]; T1DM mice, 0.1 mg kg^−1, after-treatment) does the source give for C[C@@]12C[C@@H](c3ccoc3)OC(=O)[C@@H]1C[C@@H]1OC(=O)[C@@]3(O)[C@@H](O[C@@H]4O[C@H](CO)[C@@H](O)[C@H](O)[C@H]4O)CC[C@@H]2[C@@]13C [borapetoside A] here?
A: Its Plasma insulin is 22.7 ± 0.2 pmol/L.

Q: And the Plasma insulin ([1]; T1DM mice, 0.1 mg kg^−1, before-treatment)?
A: Its Plasma insulin is 22.9 ± 0.1 pmol/L.

Q: And the Plasma insulin ([1]; T1DM mice, 0.3 mg kg^−1, after-treatment)?
A: The Plasma insulin was 22.7 ± 0.3 pmol/L.

Q: And the Plasma insulin ([1]; T1DM mice, 0.3 mg kg^−1, before-treatment)?
A: The Plasma insulin was 22.9 ± 0.1 pmol/L.

Q: And the Plasma insulin ([1]; T1DM mice, 1 mg kg^−1, after-treatment)?
A: Its Plasma insulin is 23.0 ± 0.2 pmol/L.

Q: What about the Plasma insulin ([1]; T1DM mice, 1 mg kg^−1, before-treatment) of the same compound?
A: The Plasma insulin was 23.1 ± 0.2 pmol/L.

Q: What about the Plasma insulin ([1]; T1DM mice, 3 mg kg^−1, after-treatment) of the same compound?
A: The Plasma insulin was 23.0 ± 0.0 pmol/L.

Q: What about the Plasma insulin ([1]; T1DM mice, 3 mg kg^−1, before-treatment) of the same compound?
A: The Plasma insulin was 23.1 ± 0.2 pmol/L.

Q: And the Plasma insulin ([1]; T1DM mice, 10 mg kg^−1, after-treatment)?
A: The Plasma insulin was 23.0 ± 0.1 pmol/L.

Q: What about the Plasma insulin ([1]; T1DM mice, 10 mg kg^−1, before-treatment) of the same compound?
A: The Plasma insulin was 23.1 ± 0.1 pmol/L.

Q: What about the Plasma insulin ([1]; T2DM mice, 0.1 mg kg^−1, after-treatment) of the same compound?
A: The Plasma insulin was 134.5 ± 9.3 pmol/L.

Q: What about the Plasma insulin ([1]; T2DM mice, 0.1 mg kg^−1, before-treatment) of the same compound?
A: Its Plasma insulin is 140.5 ± 4.1 pmol/L.

Q: What about the Plasma insulin ([1]; T2DM mice, 0.3 mg kg^−1, after-treatment) of the same compound?
A: The Plasma insulin was 149.0 ± 9.5 pmol/L.

Q: What about the Plasma insulin ([1]; T2DM mice, 0.3 mg kg^−1, before-treatment) of the same compound?
A: Its Plasma insulin is 133.0 ± 4.2 pmol/L.

Q: What about the Plasma insulin ([1]; T2DM mice, 1 mg kg^−1, after-treatment) of the same compound?
A: Its Plasma insulin is 123.7 ± 9.6 pmol/L.

Q: What about the Plasma insulin ([1]; T2DM mice, 1 mg kg^−1, before-treatment) of the same compound?
A: Its Plasma insulin is 126.8 ± 5.7 pmol/L.

Q: What about the Plasma insulin ([1]; T2DM mice, 3 mg kg^−1, after-treatment) of the same compound?
A: The Plasma insulin was 184.3 ± 14.6 pmol/L.

Q: What about the Plasma insulin ([1]; T2DM mice, 3 mg kg^−1, before-treatment) of the same compound?
A: Its Plasma insulin is 138.3 ± 3.6 pmol/L.

Q: What about the Plasma insulin ([1]; T2DM mice, 10 mg kg^−1, after-treatment) of the same compound?
A: Its Plasma insulin is 205.3 ± 22.2 pmol/L.

Q: And the Plasma insulin ([1]; T2DM mice, 10 mg kg^−1, before-treatment)?
A: The Plasma insulin was 134.9 ± 3.5 pmol/L.

Q: What about the Plasma insulin ([1]; normal mice, 0.1 mg kg^−1, after-treatment) of the same compound?
A: The Plasma insulin was 68.3 ± 4.4 pmol/L.

Q: What about the Plasma insulin ([1]; normal mice, 0.1 mg kg^−1, before-treatment) of the same compound?
A: Its Plasma insulin is 61.0 ± 4.6 pmol/L.

Q: And the Plasma insulin ([1]; normal mice, 0.3 mg kg^−1, after-treatment)?
A: Its Plasma insulin is 129.4 ± 22.0 pmol/L.

Q: What about the Plasma insulin ([1]; normal mice, 0.3 mg kg^−1, before-treatment) of the same compound?
A: Its Plasma insulin is 63.4 ± 3.9 pmol/L.

Q: What about the Plasma insulin ([1]; normal mice, 1 mg kg^−1, after-treatment) of the same compound?
A: Its Plasma insulin is 118.8 ± 10.1 pmol/L.

Q: And the Plasma insulin ([1]; normal mice, 1 mg kg^−1, before-treatment)?
A: Its Plasma insulin is 66.1 ± 5.4 pmol/L.

Q: What about the Plasma insulin ([1]; normal mice, 3 mg kg^−1, after-treatment) of the same compound?
A: Its Plasma insulin is 121.2 ± 14.2 pmol/L.

Q: And the Plasma insulin ([1]; normal mice, 3 mg kg^−1, before-treatment)?
A: The Plasma insulin was 64.4 ± 3.6 pmol/L.

Q: And the Plasma insulin ([1]; normal mice, 10 mg kg^−1, after-treatment)?
A: The Plasma insulin was 108.2 ± 2.9 pmol/L.

Q: And the Plasma insulin ([1]; normal mice, 10 mg kg^−1, before-treatment)?
A: The Plasma insulin was 68.9 ± 1.3 pmol/L.

Q: What about the “glycogen content in soleus muscle, % of vehicle control” value (shortened to “glycogen content in soleus muscle, %”) (soleus muscle; mice with type 1 DM) of the same compound?
A: Its value is 155.6±8.6%.

Q: What about the “glycogen content in soleus muscle, %” value (soleus muscle; mice with type 2 DM) of the same compound?
A: Its value is 171.8±12.0%.

Q: What about the “glycogen content in soleus muscle, %” value (soleus muscle; normal mice) of the same compound?
A: Its value is 116.5±4.2%.

Q: What about the “glycogen content in liver, % of vehicle control” value (“glycogen content in liver, %” below) (liver; mice with type 1 DM) of the same compound?
A: Its value is 196.9±15.6%.

Q: What about the “glycogen content in liver, %” value (liver; mice with type 2 DM) of the same compound?
A: The value was 146.1±12.0%.

Q: And the “glycogen content in liver, %” value (liver; normal mice)?
A: Its value is 257.8±15.8%.

Q: What about the “phosphorylated AS160 in liver” value (phosphor-AS160 (Thr^642)) of the same compound?
A: The value was “increased”.

Q: And the “expression of GLUT2 in liver” value (GLUT2)?
A: Its value is “increased”.

Q: And the “PEPCK expression in liver” value (PEPCK)?
A: The value was “significant decrease”.
